Data published in patent US20130217050A1, “METHOD FOR DIAGNOSING ALZHEIMER'S DISEASE USING-SOLUBLE GPVI” (MOCHIDA PHARMACEUTICAL CO., LTD., priority 2010, published 2013).

System: washed monkey platelets
Experiment: sGPVI production mechanism using monkey washed platelets
Assay type: cell-based
Conditions: stimulating agent added to washed platelet suspension with calcium chloride, 37° C. for 1 hour; sGPVI in supernatant by ELISA; compared with control group without stimulating agent (FIG. 8)
Description: Human serum and human plasma were prepared by a 100-fold or more dilution with 0.1% BSA, 0.05% Tween 20, and 0.3 M NaCl/D-PBS and added to the F1232-7-1-immobilized plate to incubate at 28° C. for 2 hours. In addition, a recombinant human sGPVI-His that was expressed and purified by Free Style 293 Expression System (manufactured by Invitrogen) was used as the reference material. After the reaction incubation, the plate was washed with physiological saline containing 0.05% Tween 20. F1232-10-2 Fab′-HRP prepared in Example 1 as a secondary labeled antibody was diluted 100-fold with 2% rat serum and 0.05% Tween 20/D-PBS and added to the well to incubate at 28° C. for 1 hour. After washing the plate, tetramethylbenzidine (hereinafter described as TMB) that was returned to room temperature was added, and incubated for 10 minutes. After stopping the reaction by the addition of 0.5 M sulfuric acid, the absorbance at 450 nm was measured using a microplate reader SpectraMax (manufactured by Molecular Devices), and the absorbance at 650 nm was subtracted as a reference. The resulting absorbance was analyzed using a microplate data analysis software (SoftMax Pro 5.2, manufactured by Molecular Devices). In addition, the data was expressed in terms of mean±standard error (SE) in principle.
Whole blood was collected from the monkey's leg vein using sodium citrate as an anticoagulant. Platelet-rich plasma (hereinafter described as PRP) was prepared by centrifuging the obtained whole blood at 900 rpm×10 minutes, and only PRP fraction was separated gently by PIPETMAN to transfer it to a new tube. The PRP was centrifuged at 2000 rpm×10 minutes at room temperature to precipitate the platelets. […] The number of platelets was counted by Sysmex F-820 (To a Medical Electronics Co., Ltd.), and the platelet count was adjusted to 40.0×10^7/ml. […]
The production of sGPVI was examined by adding various stimulating agents such as collagen, sAβ, or fAβ, to monkey washed platelets. […] The concentration of sGPVI in the reaction mixture was measured by the ELISA method as described in Example 2.

Substance | production of sGPVI
fibril Aβ: Aβ1-42 incubated at room temperature for one week after the dilution in D-PBS, used as fibril amyloid β | production of sGPVI was observed
sAβ: Aβ1-42 (AnaSpec Inc) just after diluted in D-PBS, used as soluble amyloid β | production of sGPVI was not observed
collagen | production of sGPVI was observed
